Data: patent publication US6197768A, “Pyridocarbazole derivatives having cgmp-pde inhibitory activity” (Mochida Pharmaceutical Co., Ltd., priority 1996, dated 2001)
Structures can show the parent of a compound that is named as a salt.

What was measured:
coronary artery diameter = test: Coronary Artery Diameter Increasing Action in anesthetized dogs; format: in vivo, adult mongrel dogs; settings: for Coronary artery diameter (relative to nitroglycerin): maximal change as ratio to 10 μg/kg nitroglycerin
Protocol: (§1) Adult mongrel dogs were thoracotomized under anesthesia with α-chloralose and the circumflex branch of the left coronary artery was […]; a pair of ultrasonic crystals were attached to the tunica extima for measuring the diameter of the coronary artery whereas an electromagnetic flow probe was attached to the peripheral side to measure the coronary blood flow. Nitroglycerin, dipyridamole and each test compound were administered intravenously for comparison. Each test compound was dissolved in dimethylformamide and diluted sequentially with polyethylene glycol 200 and water to give respective proportions of 20, 50 and 30% (v/v). The results are shown in Table 3, in which the maximal changes in the diameter of the coronary artery and the coronary blood flow are expressed in terms of the ratio to the respective changes caused by 10 μg/kg of nitroglycerin.

coronary blood flow = test: Coronary blood flow in anesthetized dogs; format: in vivo, adult mongrel dogs; settings: maximal change as ratio to 10 μg/kg nitroglycerin
Protocol: as §1

PDE type V = biological target: T1, PDE type V (Canis lupus familiaris, UniProt O77746); test: PDE Inhibiting Activity, type V (cGMP-PDE); format: biochemical, dog (canine aorta); settings: PDE type V from canine aorta, 1 μM substrate, pH 7.5; read-out: Inhibition Activity IC50, Type V
T1 construct: PDE was purified from the aorta in a dog; from tissue; host or cells: dog aorta
Protocol: (§2) On the basis of the method of Lugnier et al. (Biochem. Pharmacol., 35, 1743-1751, 1986), PDE was purified from the aorta in a dog. The canine aorta was minced and homogenized with a Waring Blender and a glass homogenizer in six volumes of a Tris-HCl buffer solution (pH 7.5, 20 mM) containing 2 mM magnesium acetate, 5 mM ethylenediaminetetraacetic acid (EDTA), 100 μg/mL of phenylmethylsulforyl fluoride and 15 mM 2-mercaptoethanol (2-ME), and centrifuged at 1200 xg for 30 min. The supernatant was separated and salted out with ammonium sulfate which was added to 45% saturation. The resulting precipitated fraction was resuspended in a Tris-HCl buffer solution (pH 7.5, 20 mM) containing 2 mM magnesium acetate and 1 mM 2-ME, dialyzed overnight and applied to a DEAE-trisacryl column (DEAE […] M:IBF). By elution with a sodium chloride gradient (0-0.4 M), PDE types V and III were separated from the other isozymes. The supernatant fraction of 45% saturated ammonium sulfate was further mixed with ammonium sulfate to 65% saturation and salted out. The resulting precipitated fraction was similarly applied to the DEAE-trisacryl column and eluted by a sodium chloride gradient (0-0.4 M) so as to separate PDE type I.
The thus obtained PDE types V, III and I were measured for their activity in accordance with the method of Thompson et al. (Adv. Cyclic Nucleotide Res., 10, 69-72, 1979) and the method of Wells et al. (Biochim. Biophys. Acta, 384, 430-443, 1975). Specifically, a purified PDE sample was added to 50 mM Tris-HCl buffer solution (pH 7.5) containing 1 μM of substrate cGMP or cAMP (containing tritium-labelled cGMP or cAMP), 1 mM EGTA and 2 mM magnesium acetate. […] The activity of each test compound was determined as a percentage of the DPE activity measured when it was added as a dimethyl sulfoxide solution (DMSO) and its IC50 (50% inhibition concentration) was calculated by the probit method. […]

PDE type III = biological target: T2, PDE type III (Canis lupus familiaris, UniProt A0A8I3NYE0); test: PDE Inhibiting Activity, type III; format: biochemical, dog (canine aorta); settings: PDE type III from canine aorta, 1 μM substrate, pH 7.5; read-out: Inhibition Activity IC50, Type III
T2 construct: PDE was purified from the aorta in a dog; from tissue; host or cells: dog aorta
T2 sequence (A0A8I3NYE0 1-1135): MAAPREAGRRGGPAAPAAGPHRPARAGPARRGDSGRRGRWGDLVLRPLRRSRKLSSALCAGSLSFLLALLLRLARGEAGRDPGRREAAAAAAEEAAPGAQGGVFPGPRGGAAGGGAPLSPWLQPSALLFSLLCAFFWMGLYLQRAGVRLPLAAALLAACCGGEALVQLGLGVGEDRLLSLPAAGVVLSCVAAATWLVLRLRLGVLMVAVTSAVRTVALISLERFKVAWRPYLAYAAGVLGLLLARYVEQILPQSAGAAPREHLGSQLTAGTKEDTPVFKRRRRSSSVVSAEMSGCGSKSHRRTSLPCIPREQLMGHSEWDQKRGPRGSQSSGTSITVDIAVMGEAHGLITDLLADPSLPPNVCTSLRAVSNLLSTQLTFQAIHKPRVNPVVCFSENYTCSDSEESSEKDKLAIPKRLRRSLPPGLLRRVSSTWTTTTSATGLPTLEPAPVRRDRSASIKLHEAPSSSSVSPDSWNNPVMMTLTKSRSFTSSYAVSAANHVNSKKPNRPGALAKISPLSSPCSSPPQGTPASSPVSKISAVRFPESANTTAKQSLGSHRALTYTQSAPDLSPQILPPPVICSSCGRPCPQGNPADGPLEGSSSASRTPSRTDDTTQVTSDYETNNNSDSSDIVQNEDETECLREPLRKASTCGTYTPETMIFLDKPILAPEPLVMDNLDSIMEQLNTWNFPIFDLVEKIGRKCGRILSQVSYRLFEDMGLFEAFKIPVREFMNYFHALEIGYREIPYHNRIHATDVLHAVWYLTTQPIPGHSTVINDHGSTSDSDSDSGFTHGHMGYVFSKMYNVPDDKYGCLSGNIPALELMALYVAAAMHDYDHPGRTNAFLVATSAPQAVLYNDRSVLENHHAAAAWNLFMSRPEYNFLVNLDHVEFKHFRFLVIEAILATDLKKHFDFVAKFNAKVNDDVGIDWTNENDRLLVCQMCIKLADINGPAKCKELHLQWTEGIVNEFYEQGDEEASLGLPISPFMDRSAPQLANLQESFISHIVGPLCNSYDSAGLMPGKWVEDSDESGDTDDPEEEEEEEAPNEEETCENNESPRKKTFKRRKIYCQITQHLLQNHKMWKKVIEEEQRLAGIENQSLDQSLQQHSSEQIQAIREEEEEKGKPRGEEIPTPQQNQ
Protocol: as §2
(§3) The thus obtained PDE types V, III and I were measured for their activity in accordance with the method of Thompson et al. (Adv. Cyclic Nucleotide Res., 10, 69-72, 1979) and the method of Wells et al. (Biochim. Biophys. Acta, 384, 430-443, 1975). Specifically, a purified PDE sample was added to 50 mM Tris-HCl buffer solution (pH 7.5) containing 1 μM of substrate cGMP or cAMP (containing tritium-labelled cGMP or cAMP), 1 mM EGTA and 2 mM magnesium acetate. For PDE activity measurement, enzymatically produced 5' GMP or 5' AMP was further hydrolyzed into guanosine or adenosine with snake venom and separated from the substrate by means of an ion-exchange resin (Dowex 1-X2), followed by measuring with a scintillation counter. The activity of each test compound was determined as a percentage of the DPE activity measured when it was added as a dimethyl sulfoxide solution (DMSO) and its IC50 (50% inhibition concentration) was calculated by the probit method. The final concentration of DMSO was adjusted to be no more than 2% in consideration of the effect on PDE activity.

PDE type I = test: PDE Inhibiting Activity, type I; format: biochemical, dog (canine aorta); settings: PDE type I from canine aorta, 1 μM substrate, pH 7.5; read-out: Inhibition Activity IC50, Type I
Protocol: as §2, §3

[1] = system: vascular smooth muscle cells isolated from aortic media; settings: Garg et al. 1989; Nakaki et al. 1990; cited from earlier work
[2] = system: pulmonary arterial pressure; test: Pulmonary Arterial Pressure Lowering Action in anesthetized dogs; format: in vivo, adult mongrel dogs
Protocol: (§4) Adult mongrel dogs were anesthetized by intramuscular administration of 20 mg/kg of ketamine and intravenous administration of 20 mL/kg of physiological saline containing 5 mg/mL of α-chloralose; under artificial respiration, the aortic pressure was measured with a catheter inserted into the femoral artery and the pulmonary arterial pressure with a Swan-Ganz catheter inserted into the pulmonary artery. Anesthesia was maintained by intravenous administration of physiological saline containing 5 mg/mL of α-chloralose at a rate of 5 mL/kg per hour. Comparison was made between nitroglycerin, nifedipine and test compounds which were administered intravenously at doses of 0.01-1 mg/kg. Each test compound was dissolved in dimethylformamide (DMF) and sequentially diluted with polyethylene glycol 200 and water to give respective proportions of 20, 50 and 30% (v/v) and administrated by injection into the right femoral vein in a volume of 0.3 mL/kg. The results are shown in Table 2 below, in which maximal percent decreases in the pulmonary arterial pressure and aortic pressure are listed to show the effectiveness of each test compound in lowering the pulmonary arterial pressure and the systemic blood pressure, respectively.

systemic blood pressure = test: Systemic blood (aortic) pressure lowering in anesthetized dogs; format: in vivo, adult mongrel dogs; settings: Canis lupus familiaris, iv, read-out: Reduction in systemic blood pressure
Protocol: as §4

| IC50 (PDE type V) | IC50 (PDE type III) | IC50 (PDE type I) | SMILES | Coronary artery diameter (relative to nitroglycerin) (coronary artery diameter; 1 mg/kg intravenous) | Coronary blood flow (relative to nitroglycerin) (coronary blood flow; 1 mg/kg intravenous) | also measured |
| --- | --- | --- | --- | --- | --- | --- |
|  |  |  | OCCN(CCO)c1nc(N2CCCCC2)c2nc(N(CCO)CCO)nc(N3CCCCC3)c2n1 [Dipyridamole, dipyridamole, reference compound] |  |  | Coronary artery diameter (relative to nitroglycerin) (coronary artery diameter; 0.03 mg/kg intravenous): 0.17; coronary artery diameter versus coronary blood flow (in words) (coronary artery diameter; intravenous, anesthetized dogs): increased more of the coronary blood flow than the coronary artery diameter; Coronary blood flow (relative to nitroglycerin) (coronary blood flow; 0.03 mg/kg intravenous): 2.66 |
|  |  |  | Nc1nc2c(nc(Br)n2[C@@H]2O[C@@H]3COP(=O)(O)O[C@H]3[C@H]2O)c(=O)[nH]1 [Example 8-bromo-cGMP, 8-bromo-cGMP] |  |  | proliferation of cultured vascular smooth muscle cells (in words) [1]: suppressed |
|  | 6.9 µM | > 100 µM | O=c1ccn2c3ccc(Cl)cc3c3cccc1c32 [Example 193, 10-chloro-4H-pyrido[3,2,1-jk]carbazole-4-one] | 1.44 | 1.40 | inhibition in vivo at 0.3 mg/kg ([2]; Canis lupus familiaris, iv, 0.3 mg/kg intravenous, anesthetized dogs, maximal percent decrease, read-out: Reduction in pulmonary arterial pressure): 16%; inhibition in vivo at 0.3 mg/kg (systemic blood pressure; 0.3 mg/kg intravenous, anesthetized dogs, maximal percent decrease): 1% |
|  |  |  | O=[N+]([O-])OCC(CO[N+](=O)[O-])O[N+](=O)[O-] [Nitroglycerin, nitroglycerin, reference compound] |  |  | inhibition in vivo at 0.01 mg/kg ([2]; Canis lupus familiaris, iv, read-out: Reduction in pulmonary arterial pressure): 19%; pulmonary arterial versus systemic blood pressure lowering (in words) ([2]; intravenous, anesthetized dogs): lowered the systemic blood pressure by greater degrees than the pulmonary arterial pressure; inhibition in vivo at 0.01 mg/kg (systemic blood pressure): 30%; proliferation of cultured vascular smooth muscle cells (in words) [1]: suppressed |
|  | 7.3 µM | 48 µM | O=c1c(Cc2cccnc2)cn2c3ccccc3c3cc(O)cc1c32 [Example 155] | 1.47 | 0.79 |  |
| 0.08 µM | > 30 µM | > 30 µM | O=c1ccn2c3ccc(Cl)cc3c3cc(Cl)cc1c32 [Example 264, 2,10-dichlor-4H-pyrido[3,2,1-jk]carbazole-4-one] |  |  |  |
|  |  |  | O=c1c(Cc2cccnc2)cn2c3cc(Br)ccc3c3cc(OCCCO)cc1c32 [Example 278, 9-bromo-2-(3-hydroxyoropyloxy)-5-(3-pyridylmethyl)-4H-pyrido[3,2,1-jk]carbazole-4-one hydrochloride] | 1.50 | 0.04 |  |
| 0.0043 µM | > 30 µM | > 30 µM | CCCOC(=O)COc1cc2c(=O)c(Cc3cccnc3)cn3c4ccc(Br)cc4c(c1)c23 [Example 7, 10-bromo-2-n-propoxycarbonylmethyloxy-5-(3-pyridylmethyl)-4H-pyrido [3,2,1-jk]carbazole-4-one] |  |  |  |

| SMILES | IC50 (PDE type V) | IC50 (PDE type III) | IC50 (PDE type I) | Coronary artery diameter (relative to nitroglycerin) (coronary artery diameter; 1 mg/kg intravenous) | Coronary blood flow (relative to nitroglycerin) (coronary blood flow; 1 mg/kg intravenous) | also measured |
| --- | --- | --- | --- | --- | --- | --- |
| O=C(COc1cc2c(=O)c(Cc3cccnc3)cn3c4ccc(Br)cc4c(c1)c23)OC1CCCCC1 [Example 15] | 0.045 µM | 15 µM | > 30 µM |  |  |  |
